Data from ChEMBL document CHEMBL5724806, “Unraveling interindividual differences and functional consequences of gut microbial metabolism of immunosuppressants” (2024).

How the values were obtained:
Type in all cases: ADME
[1] = (§1) The drug is tested on Bifidobacterium longum strain: DSM20088 for biotransformation under anaerobic condition. The drug concentrations were measured over 6 timepoints collected between 0 and 12 hours of incubation by liquid-chromatography-coupled mass spectrometry (LC–MS); parameters: dose 5 uM, timepoint 0, 1.5, 3, 6, 9, 12 hours; conditions: 5 µM
[2] = The drug is tested on Collinsella aerofaciens strain: DSM3979 for biotransformation under anaerobic condition. The drug concentrations were measured over 6 timepoints collected between 0 and 12 hours of incubation by liquid-chromatography-coupled mass spectrometry (LC–MS); parameters: dose 5 uM, timepoint 0, 1.5, 3, 6, 9, 12 hours; conditions: 5 µM
[3] = The drug is tested on Bacteroides caccae strain: DSM19024 for biotransformation under anaerobic condition. The drug concentrations were measured over 6 timepoints collected between 0 and 12 hours of incubation by liquid-chromatography-coupled mass spectrometry (LC–MS); parameters: dose 5 uM, timepoint 0, 1.5, 3, 6, 9, 12 hours; conditions: 5 µM
[4] = The drug is tested on Bacteroides stercoris strain: HM 1036 for biotransformation under anaerobic condition. The drug concentrations were measured over 6 timepoints collected between 0 and 12 hours of incubation by liquid-chromatography-coupled mass spectrometry (LC–MS); parameters: dose 5 uM, timepoint 0, 1.5, 3, 6, 9, 12 hours; conditions: 5 µM
[5] = The drug is tested on Parabacteroides distasonis strain: DSM20701 for biotransformation under anaerobic condition. The drug concentrations were measured over 6 timepoints collected between 0 and 12 hours of incubation by liquid-chromatography-coupled mass spectrometry (LC–MS); parameters: dose 5 uM, timepoint 0, 1.5, 3, 6, 9, 12 hours; conditions: 5 µM
[6] = The drug is tested on Coprococcus comes strain: ATCC27758 for biotransformation under anaerobic condition. The drug concentrations were measured over 6 timepoints collected between 0 and 12 hours of incubation by liquid-chromatography-coupled mass spectrometry (LC–MS); parameters: dose 5 uM, timepoint 0, 1.5, 3, 6, 9, 12 hours; conditions: 5 µM
[7] = The drug is tested on Eubacterium eligens strain: DSM3376 for biotransformation under anaerobic condition. The drug concentrations were measured over 6 timepoints collected between 0 and 12 hours of incubation by liquid-chromatography-coupled mass spectrometry (LC–MS); parameters: dose 5 uM, timepoint 0, 1.5, 3, 6, 9, 12 hours; conditions: lachnospira eligens, 5 µM
[8] = The drug is tested on Eubacterium hallii strain: DSM3353 for biotransformation under anaerobic condition. The drug concentrations were measured over 6 timepoints collected between 0 and 12 hours of incubation by liquid-chromatography-coupled mass spectrometry (LC–MS); parameters: dose 5 uM, timepoint 0, 1.5, 3, 6, 9, 12 hours; conditions: anaerobutyricum hallii, 5 µM
[9] = The drug is tested on Lactobacillus gasseri strain: DSM20243 for biotransformation under anaerobic condition. The drug concentrations were measured over 6 timepoints collected between 0 and 12 hours of incubation by liquid-chromatography-coupled mass spectrometry (LC–MS); parameters: dose 5 uM, timepoint 0, 1.5, 3, 6, 9, 12 hours; conditions: 5 µM
[10] = The drug is tested on Lactobacillus paracasei strain: ATCC27092 for biotransformation under anaerobic condition. The drug concentrations were measured over 6 timepoints collected between 0 and 12 hours of incubation by liquid-chromatography-coupled mass spectrometry (LC–MS); parameters: dose 5 uM, timepoint 0, 1.5, 3, 6, 9, 12 hours; conditions: lacticaseibacillus paracasei, 5 µM
[11] = The drug is tested on Ruminococcus gnavus strain: ATCC29149 for biotransformation under anaerobic condition. The drug concentrations were measured over 6 timepoints collected between 0 and 12 hours of incubation by liquid-chromatography-coupled mass spectrometry (LC–MS); parameters: dose 5 uM, timepoint 0, 1.5, 3, 6, 9, 12 hours; conditions: mediterraneibacter gnavus, 5 µM
[12] = The drug is tested on Streptococcus mitis strain: DSM12643 for biotransformation under anaerobic condition. The drug concentrations were measured over 6 timepoints collected between 0 and 12 hours of incubation by liquid-chromatography-coupled mass spectrometry (LC–MS); parameters: dose 5 uM, timepoint 0, 1.5, 3, 6, 9, 12 hours; conditions: 5 µM
[13] = The drug is tested on Streptococcus sanguinis strain: DSM20567 for biotransformation under anaerobic condition. The drug concentrations were measured over 6 timepoints collected between 0 and 12 hours of incubation by liquid-chromatography-coupled mass spectrometry (LC–MS); parameters: dose 5 uM, timepoint 0, 1.5, 3, 6, 9, 12 hours; conditions: 5 µM
[14] = (§2) The drug is tested on Gemella morbillorum strain: DSM20572 for biotransformation under microaerobic condition. The drug concentrations were measured over 6 timepoints collected between 0 and 12 hours of incubation by liquid-chromatography-coupled mass spectrometry (LC–MS); parameters: dose 5 uM, timepoint 0, 1.5, 3, 6, 9, 12 hours; conditions: 5 µM
[15] = The drug is tested on Lactobacillus gasseri strain: DSM20243 for biotransformation under microaerobic condition. The drug concentrations were measured over 6 timepoints collected between 0 and 12 hours of incubation by liquid-chromatography-coupled mass spectrometry (LC–MS); parameters: dose 5 uM, timepoint 0, 1.5, 3, 6, 9, 12 hours; conditions: 5 µM
[16] = The drug is tested on Lactobacillus paracasei strain: ATCC27092 for biotransformation under microaerobic condition. The drug concentrations were measured over 6 timepoints collected between 0 and 12 hours of incubation by liquid-chromatography-coupled mass spectrometry (LC–MS); parameters: dose 5 uM, timepoint 0, 1.5, 3, 6, 9, 12 hours; conditions: lacticaseibacillus paracasei, 5 µM
[17] = The drug is tested on Lactobacillus reuteri strain: DSM20016 for biotransformation under microaerobic condition. The drug concentrations were measured over 6 timepoints collected between 0 and 12 hours of incubation by liquid-chromatography-coupled mass spectrometry (LC–MS); parameters: dose 5 uM, timepoint 0, 1.5, 3, 6, 9, 12 hours; conditions: limosilactobacillus reuteri, 5 µM
[18] = The drug is tested on Streptococcus anginosus strain: DSM20563 for biotransformation under microaerobic condition. The drug concentrations were measured over 6 timepoints collected between 0 and 12 hours of incubation by liquid-chromatography-coupled mass spectrometry (LC–MS); parameters: dose 5 uM, timepoint 0, 1.5, 3, 6, 9, 12 hours; conditions: 5 µM
[19] = The drug is tested on Streptococcus salivarius strain: DSM20560 for biotransformation under microaerobic condition. The drug concentrations were measured over 6 timepoints collected between 0 and 12 hours of incubation by liquid-chromatography-coupled mass spectrometry (LC–MS); parameters: dose 5 uM, timepoint 0, 1.5, 3, 6, 9, 12 hours; conditions: 5 µM
[20] = as §1, with “the gut metagenome community of A-02 with ENA study accession number: PRJEB31790” for “Bifidobacterium longum strain: DSM20088”, “7” for “6”; parameters: dose 5 uM, timepoint 0, 0.75, 1.5, 3, 6, 9, 12 hours; conditions: 5 µM
[21] = as §1, with “the gut metagenome community of A-03 with ENA study accession number: PRJEB31790” for “Bifidobacterium longum strain: DSM20088”, “7” for “6”; parameters: dose 5 uM, timepoint 0, 0.75, 1.5, 3, 6, 9, 12 hours; conditions: 5 µM
[22] = as §1, with “the gut metagenome community of A-07 with ENA study accession number: PRJEB31790” for “Bifidobacterium longum strain: DSM20088”, “7” for “6”; parameters: dose 5 uM, timepoint 0, 0.75, 1.5, 3, 6, 9, 12 hours; conditions: 5 µM
[23] = as §1, with “the gut metagenome community of A-09 with ENA study accession number: PRJEB31790” for “Bifidobacterium longum strain: DSM20088”, “7” for “6”; parameters: dose 5 uM, timepoint 0, 0.75, 1.5, 3, 6, 9, 12 hours; conditions: 5 µM
[24] = as §1, with “the gut metagenome community of A-10 with ENA study accession number: PRJEB31790” for “Bifidobacterium longum strain: DSM20088”, “7” for “6”; parameters: dose 5 uM, timepoint 0, 0.75, 1.5, 3, 6, 9, 12 hours; conditions: 5 µM
[25] = as §1, with “the gut metagenome community of T-01 with ENA study accession number: PRJEB31790” for “Bifidobacterium longum strain: DSM20088”, “7” for “6”; parameters: dose 5 uM, timepoint 0, 0.75, 1.5, 3, 6, 9, 12 hours; conditions: 5 µM
[26] = as §2, with “the gut metagenome community of A-05 with ENA study accession number: PRJEB31790” for “Gemella morbillorum strain: DSM20572”, “7” for “6”; parameters: dose 5 uM, timepoint 0, 0.75, 1.5, 3, 6, 9, 12 hours; conditions: 5 µM
[27] = as §2, with “the gut metagenome community of A-08 with ENA study accession number: PRJEB31790” for “Gemella morbillorum strain: DSM20572”, “7” for “6”; parameters: dose 5 uM, timepoint 0, 0.75, 1.5, 3, 6, 9, 12 hours; conditions: 5 µM
[28] = as §2, with “the gut metagenome community of P-01 with ENA study accession number: PRJEB31790” for “Gemella morbillorum strain: DSM20572”, “7” for “6”; parameters: dose 5 uM, timepoint 0, 0.75, 1.5, 3, 6, 9, 12 hours; conditions: 5 µM
[29] = as §2, with “the gut metagenome community of P-04 with ENA study accession number: PRJEB31790” for “Gemella morbillorum strain: DSM20572”, “7” for “6”; parameters: dose 5 uM, timepoint 0, 0.75, 1.5, 3, 6, 9, 12 hours; conditions: 5 µM
[30] = as §2, with “the gut metagenome community of T-03 with ENA study accession number: PRJEB31790” for “Gemella morbillorum strain: DSM20572”, “7” for “6”; parameters: dose 5 uM, timepoint 0, 0.75, 1.5, 3, 6, 9, 12 hours; conditions: 5 µM

Bacterial Biotransformation [1] | Bacterial Biotransformation [2] | Bacterial Biotransformation [3] | Bacterial Biotransformation [4] | Bacterial Biotransformation [5] | Bacterial Biotransformation [6] | Bacterial Biotransformation [7] | Bacterial Biotransformation [8] | Bacterial Biotransformation [9] | Bacterial Biotransformation [10] | Bacterial Biotransformation [11] | Bacterial Biotransformation [12] | Bacterial Biotransformation [13] | Bacterial Biotransformation [14] | Bacterial Biotransformation [15] | Bacterial Biotransformation [16] | Bacterial Biotransformation [17] | Bacterial Biotransformation [18] | Bacterial Biotransformation [19] | Bacterial Biotransformation [20] | SMILES | further results
Compound NOT metabolized | Compound NOT metabolized | Compound NOT metabolized | Compound NOT metabolized | Compound NOT metabolized | Compound NOT metabolized | Compound NOT metabolized | Compound NOT metabolized | Compound NOT metabolized | Compound NOT metabolized | Compound NOT metabolized | Compound NOT metabolized | Compound NOT metabolized | Compound NOT metabolized | Compound NOT metabolized | Compound NOT metabolized | Compound NOT metabolized | Compound NOT metabolized | Compound NOT metabolized | Compound metabolized | C[C@@H]1C[C@H]2[C@@H]3CCC4=CC(=O)C=C[C@]4(C)[C@@]3(F)[C@@H](O)C[C@]2(C)[C@@]1(O)C(=O)CO [DEXAMETHASONE] | Bacterial Biotransformation [21]: Compound metabolized; Bacterial Biotransformation [22]: Compound metabolized; Bacterial Biotransformation [23]: Compound metabolized; Bacterial Biotransformation [24]: Compound NOT metabolized; Bacterial Biotransformation [25]: Compound NOT metabolized; Bacterial Biotransformation [26]: Compound NOT metabolized; Bacterial Biotransformation [27]: Compound metabolized; Bacterial Biotransformation [28]: Compound NOT metabolized; Bacterial Biotransformation [29]: Compound NOT metabolized; Bacterial Biotransformation [30]: Compound NOT metabolized
Compound NOT metabolized | Compound NOT metabolized | Compound NOT metabolized | Compound NOT metabolized | Compound NOT metabolized | Compound NOT metabolized | Compound NOT metabolized | Compound NOT metabolized | Compound NOT metabolized | Compound NOT metabolized | Compound metabolized | Compound NOT metabolized | Compound NOT metabolized | Compound NOT metabolized | Compound NOT metabolized | Compound NOT metabolized | Compound NOT metabolized | Compound NOT metabolized | Compound NOT metabolized | Compound metabolized | C[C@]12CCC(=O)C=C1CC[C@@H]1[C@@H]2C(=O)C[C@@]2(C)[C@H]1CC[C@]2(O)C(=O)CO [CORTISONE] | Bacterial Biotransformation [21]: Compound metabolized; Bacterial Biotransformation [22]: Compound metabolized; Bacterial Biotransformation [23]: Compound metabolized; Bacterial Biotransformation [24]: Compound metabolized; Bacterial Biotransformation [25]: Compound metabolized; Bacterial Biotransformation [26]: Compound metabolized; Bacterial Biotransformation [27]: Compound metabolized; Bacterial Biotransformation [28]: Compound metabolized; Bacterial Biotransformation [29]: Compound metabolized; Bacterial Biotransformation [30]: Compound NOT metabolized
Compound NOT metabolized | Compound NOT metabolized | Compound NOT metabolized | Compound NOT metabolized | Compound NOT metabolized | Compound NOT metabolized | Compound metabolized | Compound NOT metabolized | Compound NOT metabolized | Compound NOT metabolized | Compound NOT metabolized | Compound NOT metabolized | Compound NOT metabolized | Compound NOT metabolized | Compound NOT metabolized | Compound NOT metabolized | Compound NOT metabolized | Compound NOT metabolized | Compound NOT metabolized | Compound metabolized | CNC(=C[N+](=O)[O-])NCCSCc1ccc(CN(C)C)o1 [RANITIDINE] | Bacterial Biotransformation [21]: Compound metabolized; Bacterial Biotransformation [22]: Compound NOT metabolized; Bacterial Biotransformation [23]: Compound metabolized; Bacterial Biotransformation [24]: Compound NOT metabolized; Bacterial Biotransformation [25]: Compound NOT metabolized; Bacterial Biotransformation [26]: Compound NOT metabolized; Bacterial Biotransformation [27]: Compound metabolized; Bacterial Biotransformation [28]: Compound metabolized; Bacterial Biotransformation [29]: Compound NOT metabolized; Bacterial Biotransformation [30]: Compound NOT metabolized
